Source: PubChem BioAssay (NCI)
Where “and” joins values, the source holds several entries; their conditions need not be identical. Equal values may be shown once.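 Five concentrations, 48 hours, 96-well plates. At the GI50, growth is halved. TGI: concentration producing complete growth inhibition.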

What was measured:
Assay in all cases: inhibition of tumour cell growth, NCI panel, 48 h
A549 NSCLC = tested on: A549 NSCLC
ACHN renal = tested on: ACHN renal
CAKI-1 renal = tested on: CAKI-1 renal
CCRF-CEM leukemia = tested on: CCRF-CEM leukemia
HL-60(TB) leukemia = tested on: HL-60(TB) leukemia
M14 melanoma = tested on: M14 melanoma
NCI-H522 lung = tested on: NCI-H522 lung
SF-268 CNS = tested on: SF-268 CNS
SK-MEL-28 melanoma = tested on: SK-MEL-28 melanoma
UACC-257 melanoma = tested on: UACC-257 melanoma

Compound	GI50 (A549 NSCLC)	TGI (A549 NSCLC)	GI50 (ACHN renal)	TGI (ACHN renal)	GI50 (CAKI-1 renal)	TGI (CAKI-1 renal)	GI50 (CCRF-CEM leukemia) [µM]	TGI (CCRF-CEM leukemia) [µM]	GI50 (HL-60(TB) leukemia) [µM]	TGI (HL-60(TB) leukemia) [µM]	GI50 (M14 melanoma)	TGI (M14 melanoma)	GI50 (NCI-H522 lung)	TGI (NCI-H522 lung)	GI50 (SF-268 CNS)	TGI (SF-268 CNS)	GI50 (SK-MEL-28 melanoma)	TGI (SK-MEL-28 melanoma)	GI50 (UACC-257 melanoma)	TGI (UACC-257 melanoma)
CCC1=C(C)/C(=C/c2[nH]c(C)c(C(=O)CCCCC(=O)OC)c2C)N=C1c1ccc[nH]1	20.4 µM	> 53.4 µM	15.3 µM	31.1 µM	20.6 µM	45.8 µM	0.204	6.63	2.53	9.28	18.7 µM	58.8 µM	2.36 µM	6.37 µM	7.15 µM	47.7 µM	7.25 µM	25.8 µM	16.1 µM	44.2 µM
CCN1C(=O)C/C(=C\C(C)=O)Nc2ccccc21		> 100 µM	> 100 µM	> 100 µM		> 100 µM		> 100	> 100	> 100		> 100 µM		> 100 µM		> 100 µM		> 100 µM	> 100 µM	> 100 µM
C=C1C(=O)O[C@H]2[C@H]1CC/C(COC(=O)C(=O)c1c[nH]c3ccccc13)=C\CC[C@@]1(C)O[C@@H]21	2.27 µM	6.08 µM	2.13 µM	6.1 µM	2.97 µM	13.5 µM	1.27	13.1	1.86	4.67	2 µM	5.19 µM	0.878 µM	2.4 µM	2.39 µM	7.68 µM	2.02 µM	4.23 µM	1.64 µM	3.53 µM
COc1ccc2[nH]cc(CCNC(C)=O)c2c1		> 100 µM		> 100 µM		> 100 µM		> 100		> 100		> 100 µM		> 100 µM		> 100 µM		> 100 µM		> 100 µM
COC(=O)C1(C)C=C(Nc2ccccc2)C(=O)N1c1ccccc1 (stereo not drawn)		> 100 µM		> 100 µM		> 100 µM		> 100		> 100		> 100 µM		> 100 µM		> 100 µM		> 100 µM		> 100 µM
CC(=O)N(C)OC(=O)CC(=O)c1ccccc1		> 100 µM		> 100 µM		> 100 µM		> 100		> 100		> 100 µM		> 100 µM		> 100 µM		> 100 µM		> 100 µM
N#CC1=C(N)Oc2cc3c(cc2C1c1cccs1)OCO3 (stereo not drawn)	0.583 µM	> 70.9 µM	3.63 µM	> 100 µM	0.542 µM	> 100 µM	0.404	> 29.8	0.247	0.899	0.387 µM	> 100 µM	0.19 µM	0.639 µM	0.654 µM	> 85.6 µM	1.12 µM	> 100 µM	0.502 µM	> 100 µM
Cn1c(C(N)=O)cc2c1-c1nc(Nc3ccccc3)ncc1CCC2	3.67 µM	22 µM	3.61 µM	50.5 µM	2.11 µM	15.9 µM	6.21	> 100	6.77	49.7	4.73 µM	41.1 µM	4.13 µM	22.7 µM	5.52 µM	> 100 µM	8.74 µM	61.1 µM	19.7 µM	88.7 µM
COc1cccc(-c2nn(-c3ccccc3)cc2-c2ccnc(NCCNS(=O)(=O)c3ccc(Cl)cc3)c2)c1	5.86 µM	> 100 µM	4.56 µM	> 100 µM	5.61 µM	> 100 µM	3.47	> 100	2.56	17.9	4.15 µM	> 100 µM	2.47 µM	9.76 µM	5.49 µM	> 100 µM	7.99 µM	> 100 µM	7.03 µM	44.9 µM
CCN(CC)CCCN(c1cc(OC)cc2nccnc12)S(=O)(=O)c1ccc(C)cc1		> 100 µM		> 100 µM		> 100 µM		> 100		> 100		> 100 µM		> 100 µM		> 100 µM		> 100 µM		> 100 µM
O=C1/C(=C/c2cccc([N+](=O)[O-])c2)COc2ccc(O)c(O)c21	2.06 µM	6.37 µM	1.36 µM	2.68 µM	1.27 µM	2.59 µM	0.335	2.43	2.29	7.14	1.81 µM	4.27 µM	0.281 µM	1.36 µM	1.79 µM	4.3 µM	1.56 µM	2.98 µM	1.86 µM	4.81 µM
COc1cc(/C=C(/C)[N+](=O)[O-])ccc1O	3.94 µM and 2.5 µM	14.6 µM and 7.07 µM	2.38 µM and 1.9 µM	5.44 µM and 4 µM	2.17 µM and 1.38 µM	6.07 µM and 3.26 µM	1.85	4.91	2.75	7.01	1.83 µM and 1.85 µM	3.79 µM and 3.6 µM	0.46 µM and 0.282 µM	1.4 µM and 1.09 µM	2.73 µM and 1.92 µM	6.94 µM and 4.51 µM	1.81 µM and 1.87 µM	3.87 µM and 3.88 µM	1.66 µM and 1.61 µM	3.39 µM and 3.25 µM
CC(C)(C)NNC(=O)/C(=C/c1ccc(Oc2ccc(Cl)c(Cl)c2)cc1)NC(=O)c1ccccc1		> 100 µM		> 100 µM		> 100 µM		> 100		> 100		> 100 µM		> 100 µM		> 100 µM		> 100 µM		> 100 µM
O=C(Nc1ccc(-c2nc3cc4ccccc4cc3[nH]2)cc1)c1cccc(Br)c1	2.83 µM	10.6 µM	12.3 µM	31 µM	27.5 µM	74.8 µM	9.55	80.4	16.6	48.4	7.59 µM	24.8 µM	12.1 µM	31.8 µM	9.22 µM	26.8 µM	4.33 µM	16.8 µM	21 µM	52.3 µM
Cc1cc2c(c3c1c1ccccc1n3C)C(=O)C=CC2=O		> 100 µM		> 64.6 µM		> 70.2 µM		> 24		16		88 µM		34.7 µM		70.5 µM		47.9 µM		69 µM
CCN(CC)CCn1c(C(C)(C)C)nc2ccccc21		> 100 µM		> 100 µM		> 100 µM		> 100		> 100		> 100 µM		> 100 µM		> 100 µM		> 100 µM		> 100 µM
O=C(/C=C/c1ccco1)c1ccc(Nc2nc(Nc3ccc(F)cc3)nc(Nc3ccc(Cl)cc3)n2)cc1	22.3 µM	> 100 µM	> 45.2 µM	> 78.9 µM	19.2 µM	> 54 µM	> 37.8	> 94.4	> 42.3	98.8	13.5 µM	56.9 µM	31.1 µM	> 100 µM	34.8 µM	> 86.4 µM	> 40.2 µM	> 61.8 µM	15.2 µM	> 57.4 µM
COc1ccc(C(=O)Cn2c(C(=O)c3ccc(Cl)cc3)nc3ccccc32)cc1	29.8 µM	> 100 µM	22.9 µM	> 100 µM	> 100 µM	> 100 µM	3.02	> 100	3.11	> 53.3	3.69 µM	> 39.3 µM	10.3 µM	> 100 µM	> 24.4 µM	> 100 µM	> 22.4 µM	> 100 µM	> 100 µM	> 100 µM
Oc1ccc2ccccc2c1C=NCCCN=Cc1c(O)ccc2ccccc12	32.1 µM	> 100 µM	5.73 µM	34.9 µM	15.7 µM	49.5 µM	5.26	56.5	24.1	> 100	7.94 µM	23.1 µM	4.91 µM	41.5 µM	16.3 µM	> 100 µM	15.8 µM	> 100 µM	21.7 µM	> 100 µM
O=C1c2ccccc2-c2c1c1ccccc1c(=O)n2CCCNCCCn1c2c(c3ccccc3c1=O)C(=O)c1ccccc1-2	2.01 µM	> 50 µM	0.814 µM	8.81 µM	8.12 µM	17.5 µM	12.6	> 50	> 50	> 50	9.15 µM	30.4 µM	13.7 µM	> 50 µM	7.13 µM	> 30.6 µM	11 µM	> 36.9 µM	10.2 µM	25.7 µM
CC1=C(C)C(=O)c2c(c(C(=O)c3ccccc3)c3nc4ccccc4n3c2C)C1=O	> 100 µM	> 100 µM	37.2 µM	> 100 µM	> 100 µM	> 100 µM	> 100	> 100	> 100	> 100	> 100 µM	> 100 µM	> 100 µM	> 100 µM	28.6 µM	> 100 µM	> 100 µM	> 100 µM	95 µM	> 100 µM
